Experimental data: PubChem BioAssay (NCI)
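Dose response: 5 concentrations. Exposure: 48 h. Format: 96-well plates. Endpoint: linear interpolation; highest concentration if not reached. GI50 is the concentration that inhibits growth by half. At the TGI there is no net growth.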

Assays:
Assay in all cases: NCI tumour cell line growth inhibition, 48 h
[1] = test system: OVCAR-8 ovarian
[2] = test system: NCI-H23 lung
[3] = test system: SF-539 CNS
[4] = test system: MOLT-4 leukemia
[5] = test system: HS 578T breast
[6] = test system: SK-MEL-2 melanoma
[7] = test system: SK-MEL-28 melanoma
[8] = test system: CAKI-1 renal
[9] = test system: NCI/ADR-RES ovarian
[10] = test system: SNB-75 CNS

SMILES | TGI [1] [µM] | TGI [2] [µM] | TGI [3] [µM] | TGI [4] [µM] | TGI [5] [µM] | TGI [6] [µM] | TGI [7] [µM] | TGI [8] [µM] | TGI [9] [µM] | TGI [10] [µM] | GI50 [1] [µM] | GI50 [2] [µM] | GI50 [3] [µM] | GI50 [4] [µM] | GI50 [5] [µM] | GI50 [6] [µM] | GI50 [7] [µM] | GI50 [8] [µM] | GI50 [9] [µM] | GI50 [10] [µM]
CC(=N\N=C\c1ccccn1)/C(C)=N/N=C(C)/C(C)=N/N=C(C)/C(C)=N/N=C/c1ccccn1 | > 100 | > 100 | > 100 | > 100 | > 100 | > 100 | > 100 | > 100 | > 100 | > 100 |  |  |  |  |  |  |  |  |  | 
NCCCCNC1(c2cc3ccccc3s2)CCCCC1 | 20.9 | 28.9 | 4.59 | 8.37 | 20.4 | 3.58 | 3.81 | 28.1 | 21.2 | 9.9 |  |  |  |  |  |  |  |  |  | 
O=C(CCCn1ccnc1[N+](=O)[O-])NCCn1ccnc1[N+](=O)[O-] | > 100 | > 100 | > 100 | > 100 | > 100 | > 100 | > 100 | > 100 | > 100 | > 100 |  |  |  |  |  |  |  |  |  | 
Nc1c(S(=O)(=O)O)cc(Nc2cccc(S(=O)(=O)/C=C/S(=O)(=O)O)c2)c2c1C(=O)c1ccccc1C2=O | > 100 | > 100 | > 100 | > 100 | > 100 | > 100 | > 100 | > 100 | > 100 | > 100 |  |  |  |  |  |  |  |  |  | 
CCOc1cc(C2SCC(=O)N2c2nc3cc4sc(N5C(=O)CSC5c5ccc(O)c(OCC)c5)nc4cc3s2)ccc1O (stereo not drawn) | > 100 | > 100 | > 100 | > 100 | > 100 | > 100 | > 100 | > 100 | > 100 | > 100 |  |  |  |  |  |  |  |  |  | 
Cc1cc(N=C2C=C(Nc3cc(C)on3)C(=O)c3ccccc32)no1 | > 100 | 26 | > 59.7 | > 100 | > 100 | 72.5 | > 100 | > 100 | > 100 | > 87.8 |  |  |  |  |  |  |  |  |  | 
CS(=O)(=O)O.[Ag] | > 100 | 46.2 | 32.1 | 5.3 | > 100 | 30.2 | 35.2 | 34.2 | 74.3 | 35.6 |  |  |  |  |  |  |  |  |  | 
Nc1nc2cc(CNc3ccc(C(=O)NC(CCC(=O)O)C(=O)O)cc3)ccc2nc1-c1ccccc1 (stereo not drawn) | > 10 | > 10 | > 10 | > 10 | > 10 | > 10 | > 10 | > 10 | > 10 | > 10 |  |  |  |  |  |  |  |  |  | 
O=C(OCc1ccccc1)N1c2cc([N+](=O)[O-])ccc2C(=O)N2CCC[C@H]2C1O (stereo partly drawn) | > 100 | > 100 | > 100 | > 100 | > 100 | > 100 | > 100 | > 100 | > 100 | > 100 |  |  |  |  |  |  |  |  |  | 
NC(=O)NCCCC(NC(=O)OCCCCCn1ccc(=O)[nH]c1=O)C(=O)O (stereo not drawn) | > 100 | > 100 | > 100 | > 100 | > 100 | > 100 | > 100 | > 100 | > 100 | > 100 |  |  |  |  |  |  |  |  |  | 
C[C@H](CCC1=NCCN1)[C@H]1CC[C@H]2[C@@H]3CC[C@@H]4C[C@H](O)CC[C@]4(C)[C@H]3C[C@H](O)[C@]12C | 28.8 | 27 | 29.5 | 16.1 | 27.8 | 26.7 | 34.6 | 43.8 | > 100 | 13.5 |  |  |  |  |  |  |  |  |  | 
CCOC(=O)C(NCc1cccc(C(F)(F)F)c1)(NC(=O)c1ccccc1)C(F)(F)F (stereo not drawn) | > 100 | 70.8 | > 100 | > 100 | > 100 | > 100 | 63.6 | 41.2 | 84.5 | 93.3 |  |  |  |  |  |  |  |  |  | 
Cc1ccc2nc(Cl)c(/C=N/N3C(=O)/C(=C/c4ccc(N(C)C)cc4)N=C3c3ccccc3)cc2c1 | > 100 |  | 52.4 | 68.5 | > 100 | 98.7 | > 100 | > 100 | > 100 | > 100 |  |  |  |  |  |  |  |  |  | 
CCC(C)C1(O)OC2CC3(C)OC(=CC3=O)/C(C)=C\C3OC(=O)C1(C)C32 (stereo not drawn) | 59.9 | 24.7 | > 100 | > 100 | > 100 | 96.5 | > 100 | 31.5 | > 100 | > 100 |  |  |  |  |  |  |  |  |  | 
Cc1nnc2sc(N/N=C/c3ccccc3)nn12 | > 100 | > 100 | > 100 | > 100 | > 100 | > 100 | > 100 | > 100 | > 100 | > 100 |  |  |  |  |  |  |  |  |  | 
O=C(O)/C=C/C(=O)O | > 100 | > 100 | > 100 | > 100 | > 100 | > 100 | > 100 | > 100 | > 100 | > 100 |  |  |  |  |  |  |  |  |  | 

SMILES | TGI [1] [µM] | TGI [2] [µM] | TGI [3] [µM] | TGI [4] [µM] | TGI [5] [µM] | TGI [6] [µM] | TGI [7] [µM] | TGI [8] [µM] | TGI [9] [µM] | TGI [10] [µM] | GI50 [1] [µM] | GI50 [2] [µM] | GI50 [3] [µM] | GI50 [4] [µM] | GI50 [5] [µM] | GI50 [6] [µM] | GI50 [7] [µM] | GI50 [8] [µM] | GI50 [9] [µM] | GI50 [10] [µM]
O=C(O)c1ccc(Nc2nc3ccccc3nc2C(=O)O)cc1 | > 100 | > 100 | > 100 | > 100 | > 100 | > 100 | > 100 | > 100 | > 100 | > 100 |  |  |  |  |  |  |  |  |  | 
Nc1ccc(-n2c(=O)oc3ccc(Cl)cc3c2=O)c(Cl)c1 | 5.53 | 0.486 | 1.01 | 2.32 | 0.562 | 0.807 | 0.73 | 0.479 | 1.03 | 0.41 | 0.147 | 0.0921 | 0.116 | 0.368 | 0.081 | 0.207 | 0.1 | 0.077 | 0.172 | 0.0894
N#Cc1nc(/C=C/c2ccccc2)oc1N | > 100 | > 100 | > 100 | > 100 | > 100 | > 100 | > 100 | > 100 | > 100 | > 100 |  |  |  |  |  |  |  |  |  | 
CC1CCC2(CC1)N=C1CCC(C)CC1C1(CCC(C)CC1)N2 (stereo not drawn) | > 100 | > 100 | > 100 | 95.3 | > 100 | > 100 | > 100 | > 100 | > 100 | > 100 |  |  |  |  |  |  |  |  |  | 
O=C(/C=C/c1ccccc1O)/C=C/c1ccccc1O | 5.08 | 3.84 | 3.57 | > 100 | 12.3 | 23.1 | 3.67 | 3.21 | 4.88 | 19.5 |  |  |  |  |  |  |  |  |  | 
CC(C)(NC1=NCCO1)c1ccccc1 | > 100 | > 100 | > 100 | > 100 | > 100 | > 100 | > 100 | > 100 | > 100 | > 100 |  |  |  |  |  |  |  |  |  | 
Cc1n(CC(=O)c2ccccc2)nc2sc(N)n[n+]12 | > 100 | > 100 | > 100 | > 100 | > 100 | > 100 | > 100 | > 100 | > 100 | > 100 |  |  |  |  |  |  |  |  |  | 
O=C1C(N=Nc2ccc(-c3nc4ccccc4[nH]3)cc2)NC(=S)N1c1ccccc1 (stereo not drawn) | > 100 | > 100 | > 100 | 48.8 | > 100 | > 100 | > 100 | > 100 | > 100 | > 100 |  |  |  |  |  |  |  |  |  | 
COC(=O)c1ccccc1CC(Cc1ccccc1)C(=O)OC (stereo not drawn) | > 100 | > 100 | > 100 | 90.7 | > 100 | > 100 | > 100 | > 100 | > 100 | 73.7 |  |  |  |  |  |  |  |  |  | 
CC(C)(C)c1cc(C2COC(=O)COCC(=O)OCCOCCOCCO2)cc(C(C)(C)C)c1O (stereo not drawn) | > 100 | > 100 | > 79.7 | > 100 | 45.8 | 90.3 | 38.9 | 51.3 | > 100 | 37 |  |  |  |  |  |  |  |  |  | 
CCOC(=O)C(=Cn1c(=S)[nH]c2ccc([N+](=O)[O-])cc21)C(=O)OCC | > 100 | > 100 | > 100 | > 100 | > 100 | > 100 | > 100 | > 100 | > 100 | > 100 |  |  |  |  |  |  |  |  |  | 
C#CCOC(=O)C(N)CCCN=C(N)N (stereo not drawn) | > 100 | > 100 | > 100 | > 100 | > 100 | > 100 | > 100 | > 100 | > 100 | > 100 |  |  |  |  |  |  |  |  |  | 
COc1ccc(/C=N/n2c(Cc3ccc(Cl)cc3)n[nH]c2=O)c(OC)c1 | 95.5 | > 100 | > 100 | > 100 | 37.3 | > 100 | > 100 | > 100 | 45.2 | 37.5 |  |  |  |  |  |  |  |  |  | 
O=C(Nc1cccc(-n2ccc3c(NC(=O)c4ccccc4)nccc32)c1)c1cc(N2CCOCC2)cc(C(F)(F)F)c1 | > 100 | > 100 | 0.94 | > 100 | 32.6 | 3.82 | > 100 |  | > 100 | 0.678 | 0.286 | 0.613 | 0.0675 | 0.907 | 0.0621 | 0.167 | 0.085 | 0.0641 | 0.09 | 0.0362
CCOC(=O)C(C)c1nc2cc(N3CCN(C)CC3)c(F)cc2[nH]c1=O (stereo not drawn) | > 100 | > 100 | > 100 | > 100 | > 100 | > 100 | > 100 | > 100 | > 100 | > 100 |  |  |  |  |  |  |  |  |  | 
COc1cc2c(cc1Cl)n([O-])c(C#N)c(N1CCN(c3ccc([N+](=O)[O-])cc3)CC1)[n+]2=O | 60.1 | 91.3 | 44.3 | > 68 | > 57.5 | > 100 | > 100 | > 100 | > 100 | > 70.6 |  |  |  |  |  |  |  |  |  | 
